Drawing on EP3623369A1, “NOVEL MORPHOLINYL AMINE COMPOUNDS FOR THE TREATMENT OF AUTOIMMUNE DISEASE” (F. Hoffmann-La Roche AG, priority 2018, dated 2020), this text covers IC50 for 20 compounds.

SMILES strings stand for the structures.

The experiment addresses T1, hTLR7 (Homo sapiens, UniProt Q9NYK1).
T1 sequence (Q9NYK1 27-1049): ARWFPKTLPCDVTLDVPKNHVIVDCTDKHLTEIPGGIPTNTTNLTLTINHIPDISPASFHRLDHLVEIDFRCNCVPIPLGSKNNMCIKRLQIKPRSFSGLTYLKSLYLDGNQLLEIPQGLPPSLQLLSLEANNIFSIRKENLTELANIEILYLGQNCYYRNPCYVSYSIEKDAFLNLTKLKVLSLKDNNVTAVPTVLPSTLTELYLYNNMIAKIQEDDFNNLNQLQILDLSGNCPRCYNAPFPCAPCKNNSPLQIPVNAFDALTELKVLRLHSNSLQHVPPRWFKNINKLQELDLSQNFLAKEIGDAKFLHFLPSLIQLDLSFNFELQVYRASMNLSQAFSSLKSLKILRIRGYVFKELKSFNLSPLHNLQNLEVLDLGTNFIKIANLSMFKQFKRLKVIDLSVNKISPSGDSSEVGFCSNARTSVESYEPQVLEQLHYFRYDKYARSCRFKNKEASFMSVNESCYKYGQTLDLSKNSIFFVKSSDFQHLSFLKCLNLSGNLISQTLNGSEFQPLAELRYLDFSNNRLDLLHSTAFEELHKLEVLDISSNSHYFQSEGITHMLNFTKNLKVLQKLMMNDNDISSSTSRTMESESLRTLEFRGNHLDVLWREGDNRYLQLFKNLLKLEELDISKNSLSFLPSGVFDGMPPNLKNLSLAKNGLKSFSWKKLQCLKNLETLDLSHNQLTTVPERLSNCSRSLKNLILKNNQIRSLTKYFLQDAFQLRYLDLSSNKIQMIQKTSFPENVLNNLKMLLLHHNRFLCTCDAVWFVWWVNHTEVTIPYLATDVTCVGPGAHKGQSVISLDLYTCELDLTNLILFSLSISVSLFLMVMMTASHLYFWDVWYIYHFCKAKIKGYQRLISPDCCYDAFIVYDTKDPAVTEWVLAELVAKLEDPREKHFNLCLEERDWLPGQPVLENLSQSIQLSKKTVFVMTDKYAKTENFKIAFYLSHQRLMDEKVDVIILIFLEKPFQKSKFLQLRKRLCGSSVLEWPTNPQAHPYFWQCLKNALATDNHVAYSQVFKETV
The experiment is described as follows: HEK293-Blue-hTLR-7 cells assay (SEAP reporter, R848 stimulation). The class given is cell-based. Conditions: HEK293-Blue-hTLR7 cells, R848, 20 hrs; 0.003 is the lowest tested concentration; read-out: HEK/hTLR7 IC50. As to the method: The following tests were carried out in order to determine the activity of the compounds of formula (I) or (Ia) in HEK293-Blue-hTLR-7/8/9 cells assay.
HEK293-Blue-hTLR-7 cells assay:
A stable HEK293-Blue-hTLR-7 cell line was purchased from InvivoGen (Cat.#: hkb-htlr7, San Diego, California, USA). These cells were originally designed for studying the stimulation of human TLR7 by monitoring the activation of NF-κB. A SEAP (secreted embryonic alkaline phosphatase) reporter gene was placed under the control of the IFN-β minimal promoter fused to five NF-κB and AP-1-binding sites. The SEAP was induced by activating NF-κB and AP-1 via stimulating HEK-Blue hTLR7 cells with TLR7 ligands. Therefore the reporter expression was declined by TLR7 antagonist under the stimulation of a ligand, such as R848 (Resiquimod), for incubation of 20 hrs. The cell culture supernatant SEAP reporter activity was determined using QUANTI-Blue™ kit (Cat.#: rep-qb1, Invivogen, San Diego, Ca, USA) at a wavelength of 640 nm, a detection medium that turns purple or blue in the presence of alkaline phosphatase.
HEK293-Blue-hTLR7 cells were incubated at a density of 250,000∼450,000 cells/mL in a volume of 170 µL in a 96-well plate in Dulbecco's Modified Eagle's medium (DMEM) containing 4.5 g/L glucose, 50 U/mL penicillin, […], […], 2 mM L-glutamine, 10% (v/v) heat-inactivated fetal bovine serum with addition of 20 µL test compound in a serial dilution in the presence of final DMSO at 1% and 10 µL of 20uM R848 in above DMEM, perform incubation under 37 °C in a CO2 incubator for 20 hrs. Then 20 µL of the supernatant from each well was incubated with 180 µL Quanti-blue substrate solution at 37 °C for 2 hrs and the absorbance was read at 620∼655 nm using a spectrophotometer. The signalling pathway that TLR7 activation leads to downstream NF-κB activation has been widely accepted, and therefore similar reporter assay was modified for evaluating TLR7 antagonist.

Turning to `C[C@@H]1CN(c2ccc(C#N)n3nccc23)C[C@H](CN2Cc3ccc(N4CCN(C)CC4)cc3C2)O1` [Example 17, 4-[(2R,6S)-2-methyl-6-[[5-(4-methylpiperazin-1-yl)isoindolin-2-yl]methyl]morpholin-4-yl]pyrazolo[1,5-a]pyridine-7-carbonitrile], the IC50 stood at 65 nM.
Consider `C[C@@H]1CN(c2ccc(C#N)n3nccc23)C[C@H](CN2Cc3cc(N4CCNCC4)cnc3C2)O1` [Example 18, 4-[(2R,6S)-2-methyl-6-[(3-piperazin-1-yl-5,7-dihydropyrrolo[3,4-b]pyridin-6-yl)methyl]morpholin-4-yl]pyrazolo[1,5-a]pyridine-7-carbonitrile], for which the IC50 is 68 nM.
In the case of `C[C@@H]1CN(c2ccc(C#N)c3ncccc23)C[C@H](CN2Cc3cc(N4CCNCC4)cnc3C2)O1` [Example 20, 5-[(2R,6S)-2-methyl-6-[(3-piperazin-1-yl-5,7-dihydropyrrolo[3,4-b]pyridin-6-yl)methyl]morpholin-4-yl]quinoline-8-carbonitrile], the IC50 is 14 nM.
As for `C[C@@H]1CN(c2ccc(C#N)c3ncsc23)C[C@H](CN2Cc3ccc(N4CCNCC4)cc3C2)O1` [Example 23, 7-[(2R,6S)-2-methyl-6-[(5-piperazin-1-ylisoindolin-2-yl)methyl]morpholin-4-yl]-1,3-benzothiazole-4-carbonitrile], the IC50 turned out to be 6 nM.
For `C[C@@H]1CN(c2ccc(C#N)c3ncsc23)C[C@H](CN2CCc3cc(N4CCNCC4)ccc3C2)O1` [Example 24, 7-[(2R,6S)-2-methyl-6-[(6-piperazin-1-yl-3,4-dihydro-1H-isoquinolin-2-yl)methyl]morpholin-4-yl]-1,3-benzothiazole-4-carbonitrile], the IC50 is 9 nM.
The result for `C[C@@H]1CN(c2ccc(C#N)c3ncsc23)C[C@H](CN2Cc3cc(N4CCNCC4)cnc3C2)O1` [Example 25, 7-[(2R,6S)-2-methyl-6-[(3-piperazin-1-yl-5,7-dihydropyrrolo[3,4-b]pyridin-6-yl)methyl]morpholin-4-yl]-1,3-benzothiazole-4-carbonitrile] reads 11 nM; that for `C[C@@H]1CN(c2ccc(C#N)n3nccc23)C[C@H](CN2Cc3ccc(OCCN(C)C)cc3C2)O1` [Example 28, 4-[(2S,6R)-2-[[5-[2-(dimethylamino)ethoxy]isoindolin-2-yl]methyl]-6-methyl-morpholin-4-yl]pyrazolo[1,5-a]pyridine-7-carbonitrile], 227 nM.
Next, `C[C@@H]1CN(c2ccc(C#N)n3ncc(F)c23)C[C@H](CN2Cc3cc(N4CCNCC4)cnc3C2)O1` [Example 29, 3-fluoro-4-[(2R,6S)-2-methyl-6-[(3-piperazin-1-yl-5,7-dihydropyrrolo[3,4-b]pyridin-6-yl)methyl]morpholin-4-yl]pyrazolo[1,5-a]pyridine-7-carbonitrile]: 49 nM; `C[C@@H]1CN(c2ccc(C#N)c3nccnc23)C[C@H](CN2Cc3cc(N4CCNCC4)cnc3C2)O1` [Example 30, 8-[(2R,6S)-2-methyl-6-[(3-piperazin-1-yl-5,7-dihydropyrrolo[3,4-b]pyridin-6-yl)methyl]morpholin-4-yl]quinoxaline-5-carbonitrile]: 16 nM; `C[C@@H]1CN(c2ccc(Cl)c3ncccc23)C[C@H](CN2Cc3ccc(N4CCNCC4)cc3C2)O1` [Example 31, (2R,6S)-4-(8-chloro-5-quinolyl)-2-methyl-6-[(5-piperazin-1-ylisoindolin-2-yl)methyl]morpholine]: 29 nM.
Consider `C[C@@H]1CN(c2ccc(Cl)c3ncccc23)C[C@H](CN2CCc3cc(N4CCNCC4)ccc3C2)O1` [Example 32, (2R,6S)-4-(8-chloro-5-quinolyl)-2-methyl-6-[(6-piperazin-1-yl-3,4-dihydro-1H-isoquinolin-2-yl)methyl]morpholine], for which the IC50 came out at 39 nM.
Consider `C[C@@H]1CN(c2ccc(Cl)c3nccnc23)C[C@H](CN2Cc3ccc(N4CCNCC4)cc3C2)O1` [Example 33, (2R,6S)-4-(8-chloroquinoxalin-5-yl)-2-methyl-6-[(5-piperazin-1-ylisoindolin-2-yl)methyl]morpholine], for which the IC50 was determined as 9 nM.
`C[C@@H]1CN(c2ccc(Cl)c3nccnc23)C[C@H](CN2CCc3cc(N4CCNCC4)ccc3C2)O1` [Example 34, (2R,6S)-4-(8-chloroquinoxalin-5-yl)-2-methyl-6-[(6-piperazin-1-yl-3,4-dihydro-1H-isoquinolin-2-yl)methyl]morpholine]: the IC50 was 23 nM.
The result for `C[C@@H]1CN(c2ccc(C#N)c3nccnc23)C[C@H](CN2Cc3ccc(N4CCN(C5CC5)CC4)cc3C2)O1` [Example 35, 8-[(2S,6R)-2-[[5-(4-cyclopropylpiperazin-1-yl)isoindolin-2-yl]methyl]-6-methyl-morpholin-4-yl]quinoxaline-5-carbonitrile] reads 41 nM; that for `CC1CN(c2ccc3c(c2)CN(C[C@H]2CN(c4ccc(C#N)c5nccnc45)C[C@@H](C)O2)C3)CCN1` (stereo partly drawn) [Example 36, 8-[(2R,6S)-2-methyl-6-[[5-(3-methylpiperazin-1-yl)isoindolin-2-yl]methyl]morpholin-4-yl]quinoxaline-5-carbonitrile], 10 nM.
On to `COCCN1CCN(c2ccc3c(c2)CN(C[C@H]2CN(c4ccc(C#N)c5nccnc45)C[C@@H](C)O2)C3)CC1` [Example 37, 8-[(2S,6R)-2-[[5-[4-(2-methoxyethyl)piperazin-1-yl]isoindolin-2-yl]methyl]-6-methyl-morpholin-4-yl]quinoxaline-5-carbonitrile], for which the IC50 amounted to 50 nM.
As to `C[C@@H]1CN(c2ccc(C#N)c3nccnc23)C[C@H](CN2Cc3ccc(N4CCNC5(CC5)C4)cc3C2)O1` [Example 38, 8-[(2S,6R)-2-[[5-(4,7-diazaspiro[2.5]octan-7-yl)isoindolin-2-yl]methyl]-6-methyl-morpholin-4-yl]quinoxaline-5-carbonitrile], the IC50 was 23 nM.
Consider `C[C@@H]1CN(c2ccc(C#N)c3nccnc23)C[C@H](CN2Cc3ccc(N4CCN5CCCCC5C4)cc3C2)O1` (stereo partly drawn) [Example 40, 8-[(2S,6R)-2-[[5-(1,3,4,6,7,8,9,9a-octahydropyrido[1,2-a]pyrazin-2-yl)isoindolin-2-yl]methyl]-6-methyl-morpholin-4-yl]quinoxaline-5-carbonitrile], for which the IC50 turned out to be 33 nM.
With `C[C@@H]1CN(c2ccc(C#N)c3nccnc23)C[C@H](CN2Cc3ccc(N4C5CCC4CNC5)cc3C2)O1` [Example 41, 8-[(2S,6R)-2-[[5-(3,8-diazabicyclo[3.2.1]octan-8-yl)isoindolin-2-yl]methyl]-6-methyl-morpholin-4-yl]quinoxaline-5-carbonitrile], the IC50 stood at 59 nM.
As for `C[C@@H]1CN(c2ccc(C#N)c3ncccc23)C[C@H](CN2Cc3ccc(N4CC5CCC(C4)N5)cc3C2)O1` [Example 42, 5-[(2S,6R)-2-[[5-(3,8-diazabicyclo[3.2.1]octan-3-yl)isoindolin-2-yl]methyl]-6-methyl-morpholin-4-yl]quinoline-8-carbonitrile], the IC50 is 62 nM.
